From US20110111040A1, “POLYELECTROLYTE-ENCAPSULATED GOLD NANOPARTICLES CAPABLE OF CROSSING BLOOD-BRAIN BARRIER” (priority 2008, published 2011)

How the values were obtained:
[1] = Electrophoretic mobility (ue) measurements as a function of pH; type: physicochemical
Description: Electrophoretic mobility (ue) measurements were performed in a Malvern Zetasizer 2000 apparatus (Malvern Instruments, England) at room temperature. Measurements were carried out 24 hours after the preparation of the suspensions, and the pH was readjusted immediately before the mobility was measured. In FIG. 1. electrophoretic mobility as a function of the pH of the gold nanoparticles, creatine, gold-creatine composite particles, and albumin are shown. As observed, the gold nanoparticles present a negative electrophoretic mobility (ue) over the whole range of pH, characteristic of the citrate molecules adsorbed on them, becoming more negative with pH increase. […] On the contrary, albumin molecules present an isoelectric point between pH 4.5-5, becoming more negative with pH increase.

[2] = albumin alone; stated without own test; cited from earlier work

Compound	electrophoretic mobility (ue) ([1]; acidic conditions)	electrophoretic mobility (ue) ([1]; whole range of pH)	crossing of the blood brain barrier [2]	isoelectric point [1]
CN(CC(=O)O)C(=N)N [Creatine]	very close to zero	negative	–	–
albumin	–	–	not able to cross the blood brain barrier	4.5-5 pH
